According to patent US10669272B2, “Substituted naphthyridinone compounds useful as T cell activators” (BRISTOL-MYERS SQUIBB COMPANY, priority 2018, dated 2020):
Structures can show the parent of a compound that is named as a salt. Where two headings read alike, the source gives them in different places.

Assays:
human DGKζ = molecular target: T1, human DGKζ (Homo sapiens, UniProt Q13574); experiment: DGKζ LIPGLO assay (extruded liposome substrate), in vitro DGK inhibition; type: biochemical; details: read-out: DGKz LIPGLO IC50
T1 construct: TVMV protease cleavage site (C); Hexa-His (C); made in house; host or cells: Sf9 insect cells (baculovirus, Bac-to-Bac)
T1 sequence (Q13574 with tags, fused parts or gaps isoform Q13574-4): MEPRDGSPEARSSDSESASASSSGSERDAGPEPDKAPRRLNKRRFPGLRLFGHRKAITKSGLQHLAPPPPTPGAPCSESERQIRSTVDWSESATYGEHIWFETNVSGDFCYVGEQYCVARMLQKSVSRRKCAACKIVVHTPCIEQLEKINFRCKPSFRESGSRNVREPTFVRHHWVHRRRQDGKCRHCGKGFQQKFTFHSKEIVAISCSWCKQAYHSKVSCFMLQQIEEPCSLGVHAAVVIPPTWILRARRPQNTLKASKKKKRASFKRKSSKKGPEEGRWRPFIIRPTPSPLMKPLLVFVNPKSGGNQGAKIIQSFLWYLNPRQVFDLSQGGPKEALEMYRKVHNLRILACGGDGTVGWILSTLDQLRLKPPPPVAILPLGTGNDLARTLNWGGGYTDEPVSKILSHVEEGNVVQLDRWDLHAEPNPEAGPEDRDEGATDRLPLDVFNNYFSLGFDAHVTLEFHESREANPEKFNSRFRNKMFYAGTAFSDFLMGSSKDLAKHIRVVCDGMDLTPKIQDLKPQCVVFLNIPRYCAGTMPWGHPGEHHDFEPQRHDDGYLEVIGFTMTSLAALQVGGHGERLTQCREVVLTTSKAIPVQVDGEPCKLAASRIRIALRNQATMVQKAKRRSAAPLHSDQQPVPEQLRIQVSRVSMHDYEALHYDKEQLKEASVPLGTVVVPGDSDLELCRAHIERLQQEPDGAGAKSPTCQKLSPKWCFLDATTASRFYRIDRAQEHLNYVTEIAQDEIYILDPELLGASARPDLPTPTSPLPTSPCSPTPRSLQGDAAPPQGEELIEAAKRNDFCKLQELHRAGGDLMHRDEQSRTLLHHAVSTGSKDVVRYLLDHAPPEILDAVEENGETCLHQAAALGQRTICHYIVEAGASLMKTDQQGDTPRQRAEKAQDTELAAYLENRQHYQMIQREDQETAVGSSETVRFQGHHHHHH

Human venous whole blood = experiment: Human whole blood IFN-γ assay; type: cell-based; details: human whole blood, read-out: INFg Whole Blood Normalized Agonist EC50;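 note: blood from healthy donors exposed to compound for 1 h before stimulation with anti-CD3 and anti-CD28 at 1 µg/mL each, IFN-γ quantified in supernatant by AlphaLISA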
human DGKα = molecular target: T2, human DGKα (Homo sapiens, UniProt P23743); experiment: DGKα LIPGLO assay (extruded liposome substrate), in vitro DGK inhibition; type: biochemical; details: read-out: DGKa LIPGLO IC50
T2 construct: TVMV protease cleavage site (C); Hexa-His (C); made in house; host or cells: Sf9 insect cells (baculovirus, Bac-to-Bac)
T2 sequence (P23743 with tags, fused parts or gaps): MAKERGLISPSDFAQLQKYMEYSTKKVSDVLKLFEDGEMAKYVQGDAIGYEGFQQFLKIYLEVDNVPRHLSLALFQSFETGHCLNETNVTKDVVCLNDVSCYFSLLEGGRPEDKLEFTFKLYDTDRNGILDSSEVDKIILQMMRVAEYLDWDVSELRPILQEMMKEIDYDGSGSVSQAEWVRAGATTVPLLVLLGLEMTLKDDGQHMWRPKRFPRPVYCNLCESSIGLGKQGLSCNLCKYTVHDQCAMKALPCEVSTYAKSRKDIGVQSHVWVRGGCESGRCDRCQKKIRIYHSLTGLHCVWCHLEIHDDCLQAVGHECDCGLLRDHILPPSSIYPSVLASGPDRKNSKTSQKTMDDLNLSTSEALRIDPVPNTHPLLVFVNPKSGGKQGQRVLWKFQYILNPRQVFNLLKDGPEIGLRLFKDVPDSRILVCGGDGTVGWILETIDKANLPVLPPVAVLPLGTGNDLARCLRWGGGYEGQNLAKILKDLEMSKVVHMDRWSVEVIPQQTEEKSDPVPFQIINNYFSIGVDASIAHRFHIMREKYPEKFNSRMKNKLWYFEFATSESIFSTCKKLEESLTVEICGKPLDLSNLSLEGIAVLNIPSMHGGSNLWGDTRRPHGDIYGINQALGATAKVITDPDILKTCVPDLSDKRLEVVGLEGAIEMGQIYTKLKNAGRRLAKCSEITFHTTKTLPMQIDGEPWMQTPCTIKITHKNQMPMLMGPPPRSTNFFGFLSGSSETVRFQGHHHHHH

[1] = Homo sapiens, 24 h, anti-CD3 plus anti-CD28, 24 hours, 3 μM reference compound = 100% activation
[2] = Homo sapiens, 24 h, normalized to 3 μM reference compound with anti-CD3 plus anti-CD28 as 100% activation
[3] = anti-CD3 plus anti-CD28, 24 hours, 3 μM reference compound = 100% activation
[4] = normalized to 3 μM reference compound with anti-CD3 plus anti-CD28 as 100% activation

| IC50 (human DGKζ; DGKζ liposome (LIPGLO) assay) | IC50 (human DGKα; DGKα liposome (LIPGLO) assay) | IC50 (human DGKζ; liposome (LIPGLO) assay) | IC50 (human DGKα; liposome (LIPGLO) assay) | SMILES | EC50 (Human venous whole blood; [2]) | also measured |
| --- | --- | --- | --- | --- | --- | --- |
| 2900 nM | 2300 nM | – | – | C[C@@H]1CN(c2c(C#N)c(=O)n(C)c3ccc(C#N)nc23)[C@@H](C)CN1C(c1ccc(Cl)cc1)c1ncccc1F (single isomer, unassigned) [Example 819] | – | EC50 (Human venous whole blood; [1]): 2200 nM |
| – | – | 340 nM | 1900 nM | CC(c1ccc(C2(C#N)CC2)cc1)N1C[C@H](C)N(c2cc(=O)n(C)c3ccc(C#N)nc23)C[C@H]1C (stereo partly drawn) [Example 1253] | 1800 nM | – |
| 3300 nM | 1200 nM | – | – | C[C@@H]1CN(c2c(C#N)c(=O)n(C)c3ccc(C#N)nc23)[C@@H](C)CN1C(c1ccc(F)cc1)c1ccccn1 (single isomer, unassigned) [Example 842] | – | EC50 (Human venous whole blood; [3]): 20000 nM |
| – | – | 2100 nM | 450 nM | C[C@@H]1CN(c2c(C#N)c(=O)n(C)c3ccc(C#N)nc23)CCN1C(c1ccc(F)cc1)c1nc(C2CC2)no1 (single isomer, unassigned) [Example 1029] | – | EC50 (Human venous whole blood; [4]): 3600 nM |
| 5100 nM | 250 nM | – | – | C[C@@H]1CN(c2c(C#N)c(=O)n(C)c3ccc(C#N)nc23)CCN1C(c1ccc(F)cc1)c1ccc(C(F)(F)F)cn1 (single isomer, unassigned) [Example 897] | – | EC50 (Human venous whole blood; [3]): 13000 nM |
| 1300 nM | 1900 nM | – | – | C[C@@H]1CN(c2c(C#N)c(=O)n(C)c3ccc(C#N)nc23)CCN1C(c1ccccc1)c1ccc(F)cc1 (single isomer, unassigned) [Example 878] | – | EC50 (Human venous whole blood; [3]): 570 nM |
| – | – | 2800 nM | 1400 nM | CCC(c1ccc(OC(F)(F)F)cc1F)N1C[C@H](CC)N(c2cc(=O)n(C)c3ccc(C#N)nc23)C[C@H]1C (single isomer, unassigned) [Example 1378] | – | EC50 (Human venous whole blood; [4]): 9500 nM |
| – | – | 3800 nM | 1900 nM | C[C@H]1CN(C(c2ccc(F)cc2)c2ccon2)[C@H](CO)CN1c1cc(=O)n(C)c2ccc(C#N)nc12 (single isomer, unassigned) [Example 1392] | – | EC50 (Human venous whole blood; [4]): 14000 nM |
| 560 nM | 120 nM | – | – | C[C@@H]1CN(c2cc(=O)n(C)c3ccc(C#N)nc23)[C@@H](C)CN1C(c1ccc(F)cc1)c1cscn1 (stereo partly drawn) [Example 722] | – | EC50 (Human venous whole blood; [3]): 840 nM |
| – | – | 1700 nM | 820 nM | CC(c1ccc(OC(F)(F)F)cc1)N1C[C@H](CO)N(c2cc(=O)n(C)c3ccc(C#N)nc23)C[C@H]1C (single isomer, unassigned) [Example 1420] | – | EC50 (Human venous whole blood; [4]): 1700 nM |
| 240 nM | 5100 nM | – | – | CCc1ccccc1C(c1ccc(F)cc1)N1CCN(c2c(C#N)c(=O)n(C)c3ccc(C#N)nc23)C[C@H]1C (stereo partly drawn) [Example 877] | – | EC50 (Human venous whole blood; [3]): 6000 nM |
| 32000 nM | 5200 nM | – | – | C[C@@H]1CN(c2c(C#N)c(=O)n(C)c3ccc(C#N)nc23)CCN1Cc1cccc(C#N)n1 [Example 989] | – | EC50 (Human venous whole blood; [1]): 20000 nM |
| – | – | 2100 nM | 1700 nM | C[C@@H]1CN(c2cc(=O)n(C)c3ccc(C#N)nc23)[C@@H](C)CN1C(c1ccc(Cl)cc1)c1cc(F)ccn1 (stereo partly drawn) [Example 446, 8-((2S,5R)-4-((4-chlorophenyl)(4-fluoropyridin-2-yl)methyl)-2,5-dimethylpiperazin-1-yl)-5-methyl-6-oxo-5,6-dihydro-1,5-naphthyridine-2-carbonitrile] | 1100 nM | – |
| – | – | 29 nM | 69 nM | CC[C@@H]1CN(c2cc(=O)n(C)c3ccc(C#N)nc23)[C@@H](C)CN1C(c1ccc(F)cc1)c1nc(C2CC2)cs1 (single isomer, unassigned) [Example 1338] | 130 nM | – |
| – | – | 3600 nM | 1300 nM | C[C@@H]1CN(c2cc(=O)n(C)c3ccc(C#N)nc23)[C@@H](C)CN1C(c1ccc(Cl)cc1)c1ccncn1 (single isomer, unassigned) [Example 396] | 190 nM | – |
| 3200 nM | 14000 nM | – | – | C[C@@H]1CN(c2cc(=O)n(C)c3ccc(C#N)nc23)[C@@H](C)CN1C(c1ccc(F)cc1)c1nc(C2CC2)nn1C (single isomer, unassigned) [Example 768] | – | EC50 (Human venous whole blood; [3]): 1800 nM |
| 730 nM | 590 nM | – | – | C[C@@H]1CN(c2c(C#N)c(=O)n(C)c3ccc(C#N)nc23)CCN1C(c1ccc(F)cc1)c1ccc(F)cc1F (stereo partly drawn) [Example 946] | – | EC50 (Human venous whole blood; [1]): 680 nM |
| – | – | 7400 nM | 5900 nM | C[C@@H]1CN(c2cc(=O)n(C)c3ccc(C#N)nc23)[C@@H](C)CN1C(c1c(F)cc(O)cc1F)C(F)(F)F (single isomer, unassigned) [Example 628] | – | EC50 (Human venous whole blood; [4]): 4800 nM |

| IC50 (human DGKζ; DGKζ liposome (LIPGLO) assay) | IC50 (human DGKα; DGKα liposome (LIPGLO) assay) | IC50 (human DGKζ; liposome (LIPGLO) assay) | IC50 (human DGKα; liposome (LIPGLO) assay) | SMILES | EC50 (Human venous whole blood; [2]) | also measured |
| --- | --- | --- | --- | --- | --- | --- |
| – | – | 950 nM | 50000 nM | CC(c1ccc2nccnc2c1)N1C[C@H](C)N(c2cc(=O)n(C)c3ccc(C#N)nc23)C[C@H]1C (single isomer, unassigned) [Example 651] | – | EC50 (Human venous whole blood; [4]): 20000 nM |
| – | – | 8500 nM | 1300 nM | C[C@@H]1CN(c2cc(=O)n(C)c3ccc(C#N)nc23)[C@@H](C)CN1C(CO)c1ccc(C(F)(F)F)cn1 (single isomer, unassigned) [Example 1280] | 9900 nM | – |
| – | – | 460 nM | 140 nM | C[C@@H]1CN(c2cc(=O)n(C)c3ccc(C#N)nc23)[C@@H](C)CN1C(c1ccc(Cl)cc1)c1ccccn1 (mixture of isomers) [Example 403, 8-((2S,5R)-4-((4-chlorophenyl)(pyridin-2-yl)methyl)-2,5-dimethylpiperazin-1-yl)-5-methyl-6-oxo-5,6-dihydro-1,5-naphthyridine-2-carbonitrile] | 170 nM | – |
| – | – | 610 nM | 69 nM | COCC(c1ccc(C(F)(F)F)cn1)N1C[C@H](C)N(c2cc(=O)n(C)c3ccc(C#N)nc23)C[C@H]1C (single isomer, unassigned) [Example 1277] | 1400 nM | – |
| 2800 nM | 26000 nM | – | – | C[C@@H]1CN(c2c(C#N)c(=O)n(C)c3ccc(C#N)nc23)CCN1C(c1ccc(Cl)cc1)c1ccc2c(c1)OC(F)(F)O2 (single isomer, unassigned) [Example 942] | – | EC50 (Human venous whole blood; [3]): 20000 nM |
| – | – | 680 nM | 1500 nM | CC[C@@H]1CN(c2cc(=O)n(C)c3ccc(C#N)nc23)[C@@H](C)CN1Cc1ccc(OC(F)(F)F)cc1OC [Example 1081] | 250 nM | – |
| 1900 nM | 190 nM | – | – | C[C@@H]1CN(c2cc(=O)n(C)c3ccc(C#N)nc23)[C@@H](C)CN1C(c1ccc(F)cc1)c1nc(C2CN(C(=O)OC(C)(C)C)C2)no1 (single isomer, unassigned) [Example 756] | – | EC50 (Human venous whole blood; [3]): 6000 nM |
| – | – | 680 nM | 75 nM | CC(c1ccc(OC(F)(F)F)cc1)N1C[C@H](CO)N(c2cc(=O)n(C)c3ccc(C#N)nc23)C[C@H]1C (single isomer, unassigned) [Example 1419] | 1100 nM | – |
| – | – | 4800 nM | 20000 nM | CC(c1ccc(OC(C)(C)C)cc1)N1C[C@H](C)N(c2cc(=O)n(C)c3ccc(C#N)nc23)C[C@H]1C (single isomer, unassigned) [Example 1441] | – | EC50 (Human venous whole blood; [4]): 5400 nM |
| – | – | 5300 nM | 2200 nM | COCC(F)(F)C(c1ccc(F)cc1)N1C[C@H](C)N(c2cc(=O)n(C)c3ccc(C#N)nc23)C[C@H]1C (single isomer, unassigned) [Example 1313] | 4800 nM | – |
| – | – | 15000 nM | 3800 nM | C[C@@H]1CN(c2cc(=O)n(C)c3ccc(C#N)nc23)[C@@H](C)CN1C(c1ccccc1)c1c(F)cccc1F (single isomer, unassigned) [Example 273, TFA] | – | EC50 (Human venous whole blood; normalized to 3 μM reference compound with anti-CD3 plus anti-CD28 as 100% activation, TFA): 7100 nM |
| – | – | 100 nM | 64 nM | CC[C@H]1CN(C(C)c2ccc(F)c(F)c2)[C@H](C)CN1c1cc(=O)n(C)c2ccc(C#N)nc12 (single isomer, unassigned) [Example 1139] | – | EC50 (Human venous whole blood; [4]): 1100 nM |
| 160000 nM | 13000 nM | – | – | COC(=O)c1cccc(C(C)N2C[C@H](C)N(c3c(C#N)c(=O)n(C)c4ccc(C#N)nc34)C[C@H]2C)c1 (single isomer, unassigned) [Example 795] | – | EC50 (Human venous whole blood; [1]): 20000 nM |
| 11000 nM | 3000 nM | – | – | C[C@@H]1CN(c2c(C#N)c(=O)n(C)c3ccc(C#N)nc23)CCN1C(c1ccc(F)cc1)c1ccc(C(F)(F)F)cc1 (single isomer, unassigned) [Example 910] | – | EC50 (Human venous whole blood; [3]): 20000 nM |
| 2200 nM | 68 nM | – | – | CC(c1ccc(OC(F)(F)F)cc1)N1C[C@H](C)N(c2c(C#N)c(=O)n(C)c3ccc(C#N)nc23)C[C@H]1C (single isomer, unassigned) [Example 801] | – | EC50 (Human venous whole blood; [1]): 13000 nM |
| – | – | 2600 nM | 810 nM | C[C@@H]1CN(c2cc(=O)n(C)c3ccc(C#N)nc23)[C@@H](C)CN1C(COC(F)F)c1ccc(F)cc1 (single isomer, unassigned) [Example 1189] | 1200 nM | – |
| – | – | 940 nM | 730 nM | CC[C@H]1CN(C(c2ccc(F)cc2)c2ccc(Cl)cc2)[C@H](C)CN1c1cc(=O)n(C)c2ccc(C#N)nc12 (stereo partly drawn) [Example 1128] | – | EC50 (Human venous whole blood; [4]): 550 nM |
| 2300 nM | 140000 nM | – | – | CCc1ccccc1C(c1ccc(F)cc1)N1C[C@H](C)N(c2c(C#N)c(=O)n(C)c3ccc(C#N)nc23)C[C@H]1C (single isomer, unassigned) [Example 809] | – | EC50 (Human venous whole blood; [1]): 20000 nM |
